Measurements: US20030152599A1, “Composition for external use” (Shiseido Co., Ltd., priority 1999, published 2003)

Columns and labels:
skin = experiment: Elasticity of the skin (Cutometer SEM474, Ur/Uf); format: in vivo, human (middle-aged subjects); conditions: 1% aqueous solution, inside of the forearm, three times per day for four days; Ur/Uf at 300 hPa
Protocol: (§1) The effect of 2-amino-1,3-propanediol and 2-amino-1,3-propanediol hydrochloride on mitigation of decrease in turnover rate of the keratinous layer induced by aging was investigated in four middle-aged subjects. The turnover rate, water content of the keratinous layer, and elasticity of the skin were evaluated. 1% Aqueous solutions of 2-amino-1,3-propanediol and its hydrochloride were employed as the representative compositions of the present invention. A 1% aqueous solution of glycolic acid—which is one type of AHA—was employed as a comparative composition, and water (purified water) was employed as a reference.
(§2) A 1% phosphor solution (1 mL) in ethanol was added to an outer syringe (length: about 2 cm) of a 10-mL disposable injector, to bring the solution into contact with the skin for one minute (four portions on the inside of the forearm). From the next day, each sample including water was applied to the phosphor-contacted portions. Application was performed three times per day and continued for four consecutive days.
Elasticity of the skin was measured by use of Cutometer SEM474 (product of Courage+Khazaka). The elasticity was obtained from extension (Uf) and retraction (Ur) of the skin when a negative pressure of 300 hPa was repeatedly applied to the skin by use of a probe having a diameter of 2 mm. The ratio (Ur/Uf) was employed as an index of elasticity of the skin. The higher the ratio, the higher the elasticity of the skin.
(§3) The turnover rate, water content of keratinous layer and elasticity of the skin in case of 2-amino-2-methyl-1,3-propanediol and its hydrochloride were also investigated.

desmoglein = experiment: Evaluation for promotion of decomposition of desmoglein (keratinous layer sheet, anti-desmoglein immunoblot); format: biochemical; conditions: applied to both sides of keratinous layer sheet, 37° C., humidity 75%, one week; versus glycolic acid positive control
Protocol: To both sides of a sheet (1.5±0.2 mg) of the keratinous layer was applied 2-amino-1,3-propanediol, 2-amino-1,3-propanediol hydrochloride, or glycolic acid (5 μL for each side). Glycolic acid, which is one of AHA's, was used as a positive control. The sheet was sandwiched by stainless steel mesh sheets and allowed to stand at 37° C. with a humidity of 75% for one week. Subsequently, the sheet was transferred into a microtube, and an extracting liquid (100 μL) was added to the microtube. The mixture was maintained at 37° C. overnight to extract protein from the mixture. The extract was subjected to electrophoresis by use of […], and the gel was transferred to a PVDF membrane. An anti-desmoglein antibody and an alkaline-phosphatase-labeled anti-IgG sequentially reacted with the […], and the resultant gel was colored with alkaline phosphatase. The image of bands formed on the membrane was captured by an image-scanner, and was analyzed, to obtain the amount of desmoglein. The test was performed twice, and an average value of the amount was calculated. The average values of samples were compared.
The effect of 2-amino-2-methyl-1,3-propanediol and its hydrochloride was investigated in accordance with the same method.

keratinous layer [1] = experiment: Turnover rate of the keratinous layer (decrease in fluorescence from the skin surface); format: in vivo, human (middle-aged subjects); conditions: 1% aqueous solution, inside of the forearm, three times per day for four days, measured on the fifth day
Protocol: as §1, §2
On the fifth day after the test was initiated, intensity of fluorescence from the skin surface was measured by use of a fluorescence-detector designed for this particular use. Decrease in fluorescence was employed as an index of the turnover rate of the keratinous layer. The larger the decrease in fluorescence, the greater the turnover rate.
as §3

keratinous layer [2] = experiment: Water content of the keratinous layer (electrical conductivity, Skicon-200); format: in vivo, human (middle-aged subjects); conditions: 1% aqueous solution, inside of the forearm, three times per day for four days
Protocol: as §1, §2
Water content of the keratinous layer was measured by use of an apparatus for measuring electrical conductivity (Skicon-200, product of IBS). The conductivity was employed as an index of water content. Thus, the higher the water content, the higher the electrical conductivity.
as §3

Row | Compound | elasticity of the skin (skin) | effect of promoting decomposition of desmoglein (desmoglein) | mitigation of decrease in turnover rate of the keratinous layer induced by aging (keratinous layer [1]) | water content of the keratinous layer (keratinous layer [2])
1 | Cl.NC(CO)CO [2-amino-1,3-propanediol hydrochloride] | improve | stronger effect of promoting decomposition of desmoglein than does glycolic acid | mitigate decrease in turnover rate induced by aging | improve water content of the keratinous layer
2 | NC(CO)CO [2-amino-1,3-propanediol] | improve | stronger effect of promoting decomposition of desmoglein than does glycolic acid | mitigate decrease in turnover rate induced by aging | improve water content of the keratinous layer
3 | CC(N)(CO)CO.Cl [2-amino-2-methyl-1,3-propanediol hydrochloride] | more strongly than does glycolic acid | stronger effect of promoting decomposition of desmoglein than does glycolic acid | more strongly than does glycolic acid | more strongly than does glycolic acid
4 | CC(N)(CO)CO [2-amino-2-methyl-1,3-propanediol] | more strongly than does glycolic acid | stronger effect of promoting decomposition of desmoglein than does glycolic acid | more strongly than does glycolic acid | more strongly than does glycolic acid
